# In BindingDB's records for doi:10.1021/jm00402a012 (Harvard Medical School, 1988):
# Test: Inhibition of Folyl-polyglutamate synthase from mouse liver
row,Ki [µM],Compound
1,45,"Nc1nc(N)c2nc(CNc3ccc(C(=O)NC(CCS(=O)(=O)O)C(=O)O)cc3)cnc2n1 (stereo not drawn) [2-{4-[(2,4-Diamino-pteridin-6-ylmethyl)-amino]-benzoylamino}-4-sulfo-butyric acid]"
2,185,"CN(Cc1cnc2nc(N)nc(N)c2n1)c1ccc(C(=O)NC(CCP(=O)(O)O)C(=O)O)cc1 (stereo not drawn) [2-{4-[(2,4-Diamino-pteridin-6-ylmethyl)-methyl-amino]-benzoylamino}-4-phosphono-butyric acid]"
3,188,"CN(Cc1cnc2nc(N)nc(N)c2n1)c1ccc(C(=O)NC(CCS(=O)(=O)O)C(=O)O)cc1 (stereo not drawn) [2-{4-[(2,4-Diamino-pteridin-6-ylmethyl)-methyl-amino]-benzoylamino}-4-sulfo-butyric acid]"
